Experimental data: the NIST ThermoML archive (doi:10.1021/je060271a)
Numbers after ± are expanded uncertainties.

Conditions: 303.14 K, Liquid, Vibrating tube method

CCCCCCC(=O)OCC(COC(=O)CCCCCC)(COC(=O)CCCCCC)COC(=O)CCCCCC [pentaerythritol tetraheptanoate]
Conditions | mass density [kg/m3]
163.7 kPa | 970.9 ± 1.2
201.8 kPa | 970.9 ± 1.2
226 kPa | 970.8 ± 1.2
241.8 kPa | 970.9 ± 1.2
250.8 kPa | 970.9 ± 1.2
258.8 kPa | 970.8 ± 1.2
267.9 kPa | 970.9 ± 1.2
279.3 kPa | 971 ± 1.2
289.8 kPa | 970.8 ± 1.2
301.4 kPa | 970.9 ± 1.2
315.8 kPa | 970.9 ± 1.2
328.9 kPa | 970.9 ± 1.2
342.6 kPa | 970.8 ± 1.2
354.2 kPa | 971 ± 1.2
366.8 kPa | 970.9 ± 1.2
380 kPa | 971 ± 1.2
397.2 kPa | 971 ± 1.2
412.5 kPa | 971 ± 1.2
432.5 kPa | 970.9 ± 1.2
450.7 kPa | 970.9 ± 1.2
470.3 kPa | 971 ± 1.2
496.8 kPa | 971 ± 1.2
520.4 kPa | 971.1 ± 1.2
547 kPa | 971.1 ± 1.2
581.4 kPa | 970.9 ± 1.2
613 kPa | 971.2 ± 1.2
645.8 kPa | 971.1 ± 1.2
676.4 kPa | 971.1 ± 1.2
706.7 kPa | 971.2 ± 1.2
734.4 kPa | 971.2 ± 1.2
762.1 kPa | 971.2 ± 1.2
785 kPa | 971.2 ± 1.2
807.4 kPa | 971.1 ± 1.2
827.2 kPa | 971.2 ± 1.2
847.6 kPa | 971.2 ± 1.2
869.1 kPa | 971.2 ± 1.2
895.8 kPa | 971.3 ± 1.2
919.6 kPa | 971.2 ± 1.2
944.3 kPa | 971.2 ± 1.2
969.8 kPa | 971.3 ± 1.2
1002.7 kPa | 971.3 ± 1.2
1031.7 kPa | 971.4 ± 1.2
1063.1 kPa | 971.4 ± 1.2
1101.5 kPa | 971.3 ± 1.2
1163.5 kPa | 971.4 ± 1.2
1217.5 kPa | 971.4 ± 1.2
1278.3 kPa | 971.6 ± 1.2
1312.2 kPa | 971.5 ± 1.2
1337.9 kPa | 971.6 ± 1.2
1347.4 kPa | 971.5 ± 1.2
1357.1 kPa | 971.5 ± 1.2
1376.9 kPa | 971.5 ± 1.2
1461 kPa | 971.6 ± 1.2
1578.5 kPa | 971.7 ± 1.2
1661.5 kPa | 971.6 ± 1.2
1692.7 kPa | 971.7 ± 1.2
1725.9 kPa | 971.9 ± 1.2
1765.8 kPa | 971.8 ± 1.2
1800.2 kPa | 971.8 ± 1.2
1836.8 kPa | 971.9 ± 1.2
1873.8 kPa | 971.9 ± 1.2
1919.1 kPa | 972 ± 1.2
1958.5 kPa | 971.8 ± 1.2
2006.7 kPa | 971.9 ± 1.2
2049 kPa | 972.1 ± 1.2
2092.9 kPa | 971.9 ± 1.2
2137.7 kPa | 972.1 ± 1.2
2193.4 kPa | 972 ± 1.2
2240.2 kPa | 972.1 ± 1.2
2293.3 kPa | 972.3 ± 1.2
2315.9 kPa | 972.1 ± 1.2
2329.2 kPa | 972.2 ± 1.2
2344.7 kPa | 972.2 ± 1.2
2358.2 kPa | 972.3 ± 1.2
2371.9 kPa | 972.1 ± 1.2
2388.4 kPa | 972.3 ± 1.2
2402.1 kPa | 972.3 ± 1.2
2416.3 kPa | 972.3 ± 1.2
2433 kPa | 972.3 ± 1.2
2447.2 kPa | 972.3 ± 1.2
2464.4 kPa | 972.2 ± 1.2
2478.9 kPa | 972.3 ± 1.2
2494 kPa | 972.2 ± 1.2
2508.9 kPa | 972.2 ± 1.2
2528 kPa | 972.2 ± 1.2
2539.8 kPa | 972.2 ± 1.2
2558.1 kPa | 972.4 ± 1.2
2573.1 kPa | 972.3 ± 1.2
2592.1 kPa | 972.3 ± 1.2
2607.7 kPa | 972.4 ± 1.2
2623.3 kPa | 972.3 ± 1.2
2639.6 kPa | 972.3 ± 1.2
2658.8 kPa | 972.5 ± 1.2
2675.1 kPa | 972.3 ± 1.2
2691.8 kPa | 972.4 ± 1.2
2711.7 kPa | 972.4 ± 1.2
2728.4 kPa | 972.4 ± 1.2
2745.4 kPa | 972.5 ± 1.2
2766 kPa | 972.5 ± 1.2
2783.2 kPa | 972.6 ± 1.2
2800.7 kPa | 972.5 ± 1.2
2821.5 kPa | 972.6 ± 1.2
2839.7 kPa | 972.5 ± 1.2
2857.4 kPa | 972.6 ± 1.2
2879.2 kPa | 972.5 ± 1.2
2897.6 kPa | 972.5 ± 1.2
2916.3 kPa | 972.5 ± 1.2
2935.4 kPa | 972.5 ± 1.2
2957.6 kPa | 972.5 ± 1.2
2976.7 kPa | 972.5 ± 1.2
2995.9 kPa | 972.5 ± 1.2
3019.1 kPa | 972.7 ± 1.2
